We go through 8 compounds from PubChem BioAssay (NCI).

SMILES strings stand for the structures.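 96-well plates; 48 h exposure; 5 concentrations. Endpoints by linear interpolation between flanking doses. Not reached: highest tested concentration assigned. GI50 marks 50% less growth. Definition used: TGI = concentration required for complete inhibition of growth.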

One test relates to DMS 273 small cell lung. Put plainly: NCI tumour cell line growth inhibition, 48 h.
Compound `CCOC(=O)C1Cc2[nH]c3ccccc3c2C(C)C1C` (stereo not given) registered a TGI of 30.4 µM.

`Cn1cc2ccccc2c1-c1nc(N)nc(F)n1` came in with a TGI of more than 100 µM.

The compound `O=C1C(Cl)=C(N2CCN(C3=C(Cl)C(=O)c4ccccc4C3=O)CC2)C(=O)c2ccccc21` displayed a TGI of 5.44 µM.

The compound `CC1=C(O)C(=O)[C@@H]2O[C@@H]2C1=O` registered a TGI of 62.3 µM.

`COc1ccc(C(C#N)NNC(=O)c2ccccc2O)cc1OC` (stereo not given): the TGI stood at 47.2 µM.

For the compound `O=c1[nH]n2c(=O)cc[nH]c2c1-c1nnns1`, the TGI is more than 100 µM.

Consider `N.N.N.O=[N+]([O-])[O-].O=[N+]([O-])[O-].O=[N+]([O-])[O-].O=[N+]([O-])[O-].[Co+3]`, for which the GI50 was more than 100 µM and the TGI was more than 100 µM.

The next test relates to RXF-631 renal. Put plainly: NCI tumour cell line growth inhibition, 48 h.
On to `Cn1cc2ccccc2c1-c1nc(N)nc(F)n1`, for which the TGI is more than 100 µM.

For the compound `O=C1C(Cl)=C(N2CCN(C3=C(Cl)C(=O)c4ccccc4C3=O)CC2)C(=O)c2ccccc21`, the TGI turned out to be 3.46 µM.

The next test relates to KM20L2 colon. Put plainly: NCI tumour cell line growth inhibition, 48 h.
For the compound `CCOC(=O)C1Cc2[nH]c3ccccc3c2C(C)C1C` (stereo not given), the TGI was found to be 31.8 µM.

`Cn1cc2ccccc2c1-c1nc(N)nc(F)n1` had a TGI of more than 100 µM.

The compound `O=C1C(Cl)=C(N2CCN(C3=C(Cl)C(=O)c4ccccc4C3=O)CC2)C(=O)c2ccccc21` gave a TGI of 14 µM.

For the compound `CC1=C(O)C(=O)[C@@H]2O[C@@H]2C1=O`, the TGI came to 49.4 µM.

`COc1cc(/C=C2/C(=O)N(C(=O)c3ccccc3O)N=C2C)cc(OC)c1OC` showed a TGI of more than 100 µM.

In the case of `COc1ccc(C(C#N)NNC(=O)c2ccccc2O)cc1OC` (stereo not given), the TGI was determined as 62.5 µM.

Compound `O=c1[nH]n2c(=O)cc[nH]c2c1-c1nnns1` had a TGI of more than 100 µM.

Regarding `N.N.N.O=[N+]([O-])[O-].O=[N+]([O-])[O-].O=[N+]([O-])[O-].O=[N+]([O-])[O-].[Co+3]`, the GI50 was more than 100 µM and the TGI was more than 100 µM.

The subject of another test is DLD-1 colon. Nature of the test: NCI tumour cell line growth inhibition, 48 h.
In turn, `CCOC(=O)C1Cc2[nH]c3ccccc3c2C(C)C1C` (stereo not given) yielded a TGI of 34.5 µM.

`Cn1cc2ccccc2c1-c1nc(N)nc(F)n1` registered a TGI of more than 100 µM.

Turning to `O=C1C(Cl)=C(N2CCN(C3=C(Cl)C(=O)c4ccccc4C3=O)CC2)C(=O)c2ccccc21`, the TGI stood at 0.937 µM.

The compound `CC1=C(O)C(=O)[C@@H]2O[C@@H]2C1=O` yielded a TGI of 21.7 µM.

`COc1cc(/C=C2/C(=O)N(C(=O)c3ccccc3O)N=C2C)cc(OC)c1OC` displayed a TGI of more than 100 µM.

`COc1ccc(C(C#N)NNC(=O)c2ccccc2O)cc1OC` (stereo not given) yielded a TGI of more than 100 µM.

`O=c1[nH]n2c(=O)cc[nH]c2c1-c1nnns1` returned a TGI of more than 100 µM.

As for `N.N.N.O=[N+]([O-])[O-].O=[N+]([O-])[O-].O=[N+]([O-])[O-].O=[N+]([O-])[O-].[Co+3]`, the GI50 is more than 100 µM and the TGI was more than 100 µM.

The next test relates to HOP-18 NSCLC. Put plainly: NCI tumour cell line growth inhibition, 48 h.
Take `CC1=C(O)C(=O)[C@@H]2O[C@@H]2C1=O`: the TGI came to 30.6 µM.

In turn, `COc1ccc(C(C#N)NNC(=O)c2ccccc2O)cc1OC` (stereo not given) had a TGI of more than 100 µM.

Another test has as its system LXFL 529 NSCLC. Put plainly: NCI tumour cell line growth inhibition, 48 h.
Consider `CCOC(=O)C1Cc2[nH]c3ccccc3c2C(C)C1C` (stereo not given), for which the TGI is 57.1 µM.

`Cn1cc2ccccc2c1-c1nc(N)nc(F)n1` displayed a TGI of more than 100 µM.

As to `O=C1C(Cl)=C(N2CCN(C3=C(Cl)C(=O)c4ccccc4C3=O)CC2)C(=O)c2ccccc21`, the TGI was found to be 0.793 µM.

`COc1cc(/C=C2/C(=O)N(C(=O)c3ccccc3O)N=C2C)cc(OC)c1OC` returned a TGI of more than 100 µM.

Compound `COc1ccc(C(C#N)NNC(=O)c2ccccc2O)cc1OC` (stereo not given) registered a TGI of more than 100 µM.

Consider `O=c1[nH]n2c(=O)cc[nH]c2c1-c1nnns1`, for which the TGI was more than 100 µM.

With `N.N.N.O=[N+]([O-])[O-].O=[N+]([O-])[O-].O=[N+]([O-])[O-].O=[N+]([O-])[O-].[Co+3]`, the GI50 was more than 100 µM and the TGI was more than 100 µM.

The test system of a further test is DMS 114 small cell lung. Nature of the test: NCI tumour cell line growth inhibition, 48 h.
In the case of `CCOC(=O)C1Cc2[nH]c3ccccc3c2C(C)C1C` (stereo not given), the TGI amounted to 58.5 µM.

Consider `Cn1cc2ccccc2c1-c1nc(N)nc(F)n1`, for which the TGI is more than 100 µM.

As to `O=C1C(Cl)=C(N2CCN(C3=C(Cl)C(=O)c4ccccc4C3=O)CC2)C(=O)c2ccccc21`, the TGI is 2.64 µM.

The compound `CC1=C(O)C(=O)[C@@H]2O[C@@H]2C1=O` returned a TGI of 28.4 µM.

`COc1cc(/C=C2/C(=O)N(C(=O)c3ccccc3O)N=C2C)cc(OC)c1OC` displayed a TGI of 21.7 µM.

For the compound `COc1ccc(C(C#N)NNC(=O)c2ccccc2O)cc1OC` (stereo not given), the TGI was found to be 12.7 µM.

`O=c1[nH]n2c(=O)cc[nH]c2c1-c1nnns1` returned a TGI of more than 100 µM.

The next test deals with P388 leukemia. Put plainly: NCI tumour cell line growth inhibition, 48 h.
The compound `CC1=C(O)C(=O)[C@@H]2O[C@@H]2C1=O` yielded a TGI of 4.99 µM.

A further test relates to SN12K1 renal. Nature of the test: NCI tumour cell line growth inhibition, 48 h.
Compound `CC1=C(O)C(=O)[C@@H]2O[C@@H]2C1=O` registered a TGI of 32.3 µM.

The test system of the next test is XF 498 CNS. Put plainly: NCI tumour cell line growth inhibition, 48 h.
In turn, `CCOC(=O)C1Cc2[nH]c3ccccc3c2C(C)C1C` (stereo not given) returned a TGI of 37.9 µM.

Take `Cn1cc2ccccc2c1-c1nc(N)nc(F)n1`: the TGI is more than 100 µM.

On to `O=C1C(Cl)=C(N2CCN(C3=C(Cl)C(=O)c4ccccc4C3=O)CC2)C(=O)c2ccccc21`, for which the TGI was 2.66 µM.

`CC1=C(O)C(=O)[C@@H]2O[C@@H]2C1=O` gave a TGI of 23.3 µM.

With `COc1cc(/C=C2/C(=O)N(C(=O)c3ccccc3O)N=C2C)cc(OC)c1OC`, the TGI is more than 100 µM.

`O=c1[nH]n2c(=O)cc[nH]c2c1-c1nnns1` came in with a TGI of more than 100 µM.

In a further test the test system is M19-MEL melanoma. Nature of the test: NCI tumour cell line growth inhibition, 48 h.
On to `Cn1cc2ccccc2c1-c1nc(N)nc(F)n1`, for which the TGI was more than 100 µM.

The compound `O=C1C(Cl)=C(N2CCN(C3=C(Cl)C(=O)c4ccccc4C3=O)CC2)C(=O)c2ccccc21` showed a TGI of 2.91 µM.

For `CC1=C(O)C(=O)[C@@H]2O[C@@H]2C1=O`, the TGI amounted to 28.9 µM.

`COc1cc(/C=C2/C(=O)N(C(=O)c3ccccc3O)N=C2C)cc(OC)c1OC` returned a TGI of more than 100 µM.

On to `COc1ccc(C(C#N)NNC(=O)c2ccccc2O)cc1OC` (stereo not given), for which the TGI was more than 100 µM.

The compound `O=c1[nH]n2c(=O)cc[nH]c2c1-c1nnns1` returned a TGI of more than 100 µM.

In the next test the test system is P388/ADR leukemia. Nature of the test: NCI tumour cell line growth inhibition, 48 h.
`CC1=C(O)C(=O)[C@@H]2O[C@@H]2C1=O` showed a TGI of 32.9 µM.
